This is an account of results in article PMC6358863, “Involvement of the Hydroperoxy Group in the Irreversible Inhibition of Leukocyte-Type 12-Lipoxygenase by Monoterpene Glycosides Contained in the Qing Shan Lu Shui Tea” (Molecules, 2019).

In one assay the target is T1, 15-lipoxygenase (Homo sapiens, UniProt P16050).
T1 sequence (P16050 1-662): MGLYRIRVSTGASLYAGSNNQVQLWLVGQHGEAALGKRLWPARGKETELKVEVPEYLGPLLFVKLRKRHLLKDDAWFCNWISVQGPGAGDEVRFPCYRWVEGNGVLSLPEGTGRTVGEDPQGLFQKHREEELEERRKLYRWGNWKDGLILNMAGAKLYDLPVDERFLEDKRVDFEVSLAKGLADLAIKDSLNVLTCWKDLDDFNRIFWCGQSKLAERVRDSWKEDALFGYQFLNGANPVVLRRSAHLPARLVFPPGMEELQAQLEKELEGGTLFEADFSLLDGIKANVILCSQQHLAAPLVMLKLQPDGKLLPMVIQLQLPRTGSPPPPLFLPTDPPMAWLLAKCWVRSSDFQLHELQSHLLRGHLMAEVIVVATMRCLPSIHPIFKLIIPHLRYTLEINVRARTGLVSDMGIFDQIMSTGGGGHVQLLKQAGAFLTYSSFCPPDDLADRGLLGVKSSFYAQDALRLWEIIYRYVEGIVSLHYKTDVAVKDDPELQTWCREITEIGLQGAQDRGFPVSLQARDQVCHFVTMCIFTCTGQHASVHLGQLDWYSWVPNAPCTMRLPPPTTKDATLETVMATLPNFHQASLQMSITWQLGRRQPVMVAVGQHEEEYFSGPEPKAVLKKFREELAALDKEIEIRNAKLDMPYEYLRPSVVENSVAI
Kind of assay: 15-lipoxygenase inhibition assay. Format: biochemical. The settings on record: 25 μM arachidonic acid, 30 °C, 5 min. The procedure:
(§1) Figure 6 Inhibition of various lipoxygenase and cyclooxygenase activities by liguroside A. Reactions were carried out under the standard conditions in the presence of liguroside A at various concentrations and the products were quantified, using a reverse-phase HPLC. Relative enzyme activities of the 15-lipoxygenase-1 (closed circles), platelet-type 12-lipoxygenase (open circles), 5-lipoxygenase (open lozenges), cyclooxygenase-1 (open triangles), and cyclooxygenase-2 (closed triangles), as compared to the activity without inhibitors, are shown.
(§2) The lipoxygenase and cyclooxygenase reactions were carried out, as described previously. […] The products extracted with ice-cold diethyl ether were analyzed by a reverse-phase HPLC, using a Waters Alliance system equipped with a COSMOSIL 5C18-MS-II column (5-μm particle, 250 × 4.6 mm i.d., Nacalai), with a solvent system of methanol-water-acetic acid (80:20:0.01, v/v), at a flow rate of 1 mL/min, as previously described. Absorption at 235 nm was continuously monitored, using a Waters 2489 UV/Visible detector (Waters, Milford, MA, USA). Protein concentration was determined using a bicinchoninic acid protein assay kit (Thermo Fisher Scientific, Waltham, MA, USA), with bovine serum albumin as a standard.

A further assay has as its target cyclooxygenase-1 (Homo sapiens, UniProt P23219). Kind of assay: cyclooxygenase-1 inhibition assay. Particulars: 25 μM linoleic acid, 24 °C, 5 min. The format is biochemical. The method, then: as §1, §2
A further assay concerns the target T2, cyclooxygenase-2 (Homo sapiens, UniProt P35354).
T2 sequence (P35354 18-604): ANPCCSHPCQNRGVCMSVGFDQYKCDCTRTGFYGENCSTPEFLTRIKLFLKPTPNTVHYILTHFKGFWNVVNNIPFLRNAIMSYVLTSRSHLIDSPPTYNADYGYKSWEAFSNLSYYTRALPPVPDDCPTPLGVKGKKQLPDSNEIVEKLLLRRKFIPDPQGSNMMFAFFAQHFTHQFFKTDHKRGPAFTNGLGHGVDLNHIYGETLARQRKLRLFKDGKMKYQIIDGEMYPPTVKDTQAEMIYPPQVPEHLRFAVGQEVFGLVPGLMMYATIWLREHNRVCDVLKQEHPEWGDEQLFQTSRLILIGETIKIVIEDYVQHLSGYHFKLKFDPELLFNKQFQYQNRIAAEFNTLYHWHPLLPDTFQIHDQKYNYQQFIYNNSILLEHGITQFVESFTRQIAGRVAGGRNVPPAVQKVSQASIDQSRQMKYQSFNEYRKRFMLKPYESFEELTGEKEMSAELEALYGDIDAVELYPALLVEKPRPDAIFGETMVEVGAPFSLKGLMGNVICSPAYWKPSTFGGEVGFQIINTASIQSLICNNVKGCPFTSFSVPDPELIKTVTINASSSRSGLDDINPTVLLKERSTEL
Description: cyclooxygenase-2 inhibition assay. The settings on record: 25 μM linoleic acid, 24 °C, 5 min. The format is biochemical. The method, then:
as §1, §2

Assay [1] deals with T3, platelet-type 12-lipoxygenase (Homo sapiens, UniProt P18054).
T3 sequence (P18054 1-663): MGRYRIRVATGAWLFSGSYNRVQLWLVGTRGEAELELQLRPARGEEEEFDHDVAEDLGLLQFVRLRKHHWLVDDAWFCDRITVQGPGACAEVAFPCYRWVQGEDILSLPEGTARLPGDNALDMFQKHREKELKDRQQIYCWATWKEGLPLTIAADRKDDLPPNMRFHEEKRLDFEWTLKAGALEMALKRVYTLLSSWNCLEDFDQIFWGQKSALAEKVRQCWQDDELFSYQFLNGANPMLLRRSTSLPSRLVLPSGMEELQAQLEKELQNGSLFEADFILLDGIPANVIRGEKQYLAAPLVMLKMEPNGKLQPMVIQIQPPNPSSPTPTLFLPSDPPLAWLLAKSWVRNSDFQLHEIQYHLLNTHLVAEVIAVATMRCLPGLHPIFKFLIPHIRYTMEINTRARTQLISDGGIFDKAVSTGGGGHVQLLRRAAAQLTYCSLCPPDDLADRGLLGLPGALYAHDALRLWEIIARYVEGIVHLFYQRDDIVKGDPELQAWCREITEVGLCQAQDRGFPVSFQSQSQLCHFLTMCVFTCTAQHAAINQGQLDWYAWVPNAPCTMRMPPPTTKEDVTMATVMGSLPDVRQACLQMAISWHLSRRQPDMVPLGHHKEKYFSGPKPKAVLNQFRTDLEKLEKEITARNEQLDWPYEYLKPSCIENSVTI
Description: platelet-type 12-lipoxygenase inhibition assay. Format: biochemical. The settings on record: up to 100 μM; 30 min at 37 °C. The method, then: as §1, §2

Assay [2] concerns the target T4, leukocyte-type 12-lipoxygenase (Mus musculus, UniProt P39654).
T4 sequence (P39654 1-663): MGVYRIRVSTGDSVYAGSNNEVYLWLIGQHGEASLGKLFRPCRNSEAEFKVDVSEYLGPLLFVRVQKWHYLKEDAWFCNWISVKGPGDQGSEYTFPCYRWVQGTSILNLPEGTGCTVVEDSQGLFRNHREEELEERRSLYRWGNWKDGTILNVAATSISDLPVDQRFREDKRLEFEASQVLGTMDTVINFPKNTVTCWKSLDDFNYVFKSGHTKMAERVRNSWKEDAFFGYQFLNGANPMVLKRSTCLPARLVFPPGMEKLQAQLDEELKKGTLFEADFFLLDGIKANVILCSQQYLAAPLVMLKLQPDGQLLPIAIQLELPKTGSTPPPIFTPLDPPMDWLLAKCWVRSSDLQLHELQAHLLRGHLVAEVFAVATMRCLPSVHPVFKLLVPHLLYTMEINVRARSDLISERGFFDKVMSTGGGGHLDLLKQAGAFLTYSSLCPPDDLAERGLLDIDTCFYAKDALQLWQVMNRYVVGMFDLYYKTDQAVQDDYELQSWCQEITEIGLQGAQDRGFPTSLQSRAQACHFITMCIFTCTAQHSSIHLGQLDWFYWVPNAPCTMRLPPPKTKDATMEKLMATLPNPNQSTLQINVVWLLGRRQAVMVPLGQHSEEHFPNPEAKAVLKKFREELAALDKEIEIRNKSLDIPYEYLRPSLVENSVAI
Also on record: method as in PMID 23579993. The settings on record: previous report; read-out: IC50, inhibition of leukocyte-type 12-lipoxygenase activity; cited from earlier work.

Sequence of cyclooxygenase-1 (P23219 24-599, species assumed): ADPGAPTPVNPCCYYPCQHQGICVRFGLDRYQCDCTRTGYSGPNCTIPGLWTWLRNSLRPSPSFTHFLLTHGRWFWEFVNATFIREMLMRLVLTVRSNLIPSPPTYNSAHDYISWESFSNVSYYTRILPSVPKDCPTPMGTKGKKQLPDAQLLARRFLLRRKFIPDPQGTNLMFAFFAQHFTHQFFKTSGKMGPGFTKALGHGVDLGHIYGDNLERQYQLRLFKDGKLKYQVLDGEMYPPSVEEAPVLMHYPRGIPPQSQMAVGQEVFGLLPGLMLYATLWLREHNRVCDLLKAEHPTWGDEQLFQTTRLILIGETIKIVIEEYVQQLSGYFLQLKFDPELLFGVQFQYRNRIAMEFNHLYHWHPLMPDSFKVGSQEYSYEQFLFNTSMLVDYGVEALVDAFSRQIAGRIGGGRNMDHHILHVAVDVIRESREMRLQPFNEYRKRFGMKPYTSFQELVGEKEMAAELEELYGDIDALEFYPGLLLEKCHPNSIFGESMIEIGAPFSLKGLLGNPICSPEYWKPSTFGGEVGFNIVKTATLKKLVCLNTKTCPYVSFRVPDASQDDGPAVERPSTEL

As for `C/C(=C\CO[C@@H]1O[C@H](CO)[C@@H](OC(=O)/C=C/c2ccc(O)cc2)[C@H](O[C@@H]2O[C@@H](C)[C@H](O)[C@@H](O)[C@H]2O)[C@H]1O)C/C=C/C(C)(C)OO` [liguroside A], the IC50 at 15-lipoxygenase is 3.2 µM; against cyclooxygenase-1 it was 21.5 µM; at cyclooxygenase-2, 16.9 µM; in assay [2], 1.7 µM. Besides, the “effect on platelet-type 12-lipoxygenase activity (in words)” value in assay [1] is given as “almost unaffected”.
